From BindingDB's records for doi:10.1111/j.1432-1033.1992.tb17252.x (Universit&Eacute, 1992)
Non-standard residues stand in square brackets, D forms with d. Residues, ends and D or L forms follow the SMILES beside them. ξ: configuration not given here. Ile(3ξ) = CCC(C)[C@H](N)C(=O)O

Target: T1, Pituitary adenylate cyclase-activating polypeptide (Homo sapiens, UniProt P18509)
T1 sequence (P18509 whole entry): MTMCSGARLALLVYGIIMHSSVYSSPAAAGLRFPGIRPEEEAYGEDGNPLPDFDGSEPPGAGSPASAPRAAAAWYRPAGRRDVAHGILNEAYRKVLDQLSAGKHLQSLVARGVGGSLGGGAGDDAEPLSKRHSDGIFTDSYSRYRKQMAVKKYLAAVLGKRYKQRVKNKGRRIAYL

CCC(C)[C@H](NC(=O)CNC(=O)[C@@H](N)CC(=O)O)C(=O)N[C@@H](Cc1ccccc1)C(=O)N[C@H](C(=O)N[C@@H](CC(=O)O)C(=O)N[C@@H](CO)C(=O)N[C@@H](Cc1ccc(O)cc1)C(=O)N[C@@H](CO)C(=O)N[C@@H](CCCN=C(N)N)C(=O)N[C@@H](Cc1ccc(O)cc1)C(=O)N[C@@H](CCCN=C(N)N)C(=O)N[C@@H](CCCCN)C(=O)N[C@@H](CCC(N)=O)C(=O)N[C@@H](CCSC)C(=O)N[C@@H](C)C(=O)N[C@H](C(=O)N[C@@H](CCCCN)C(=O)N[C@@H](CCCCN)C(=O)N[C@@H](Cc1ccc(O)cc1)C(=O)N[C@@H](CC(C)C)C(=O)N[C@@H](C)C(=O)N[C@@H](C)C(=O)N[C@H](C(=O)N[C@@H](CC(C)C)C(=O)NCC(=O)N[C@@H](CCCCN)C(=O)N[C@@H](CCCN=C(N)N)C(=O)N[C@@H](Cc1ccc(O)cc1)C(=O)N[C@@H](CCCCN)C(=O)N[C@@H](CCC(N)=O)C(=O)N[C@@H](CCCN=C(N)N)C(=O)N[C@H](C(=O)N[C@@H](CCCCN)C(=O)N[C@@H](CC(N)=O)C(=O)N[C@@H](CCCCN)C(N)=O)C(C)C)C(C)C)C(C)C)[C@@H](C)O (some centres not stated) [PACAP(3-38)] (H-DG[Ile(3ξ)]FTDSYSRYRKQMAVKKYLAAVLGKRYKQRVKNK-NH2) and CSCC[C@H](NC(=O)[C@H](CCC(N)=O)NC(=O)[C@H](CCCCN)NC(=O)[C@H](CCCN=C(N)N)NC(=O)[C@H](Cc1ccc(O)cc1)NC(=O)[C@H](CCCN=C(N)N)NC(=O)[C@H](CO)NC(=O)[C@H](Cc1ccc(O)cc1)NC(=O)[C@H](CO)NC(=O)[C@@H](N)CC(=O)O)C(=O)N[C@@H](C)C(=O)N[C@H](C(=O)N[C@@H](CCCCN)C(=O)N[C@@H](CCCCN)C(=O)N[C@@H](Cc1ccc(O)cc1)C(=O)N[C@@H](CC(C)C)C(=O)N[C@@H](C)C(=O)N[C@@H](C)C(=O)N[C@H](C(=O)N[C@@H](CC(C)C)C(=O)NCC(=O)N[C@@H](CCCCN)C(=O)N[C@@H](CCCN=C(N)N)C(=O)N[C@@H](Cc1ccc(O)cc1)C(=O)N[C@@H](CCCCN)C(=O)N[C@@H](CCC(N)=O)C(=O)N[C@@H](CCCN=C(N)N)C(=O)N[C@H](C(=O)N[C@@H](CCCCN)C(=O)N[C@@H](CC(N)=O)C(=O)N[C@@H](CCCCN)C(N)=O)C(C)C)C(C)C)C(C)C [PACAP(8-38)] (H-DSYSRYRKQMAVKKYLAAVLGKRYKQRVKNK-NH2) are within 1.5-fold of each other in Ki: 29 nM for the first, 30 nM for the second.

First: CCC(C)[C@H](NC(=O)CN)C(=O)N[C@@H](Cc1ccccc1)C(=O)N[C@H](C(=O)N[C@@H](CC(=O)O)C(=O)N[C@@H](CO)C(=O)N[C@@H](Cc1ccc(O)cc1)C(=O)N[C@@H](CO)C(=O)N[C@@H](CCCN=C(N)N)C(=O)N[C@@H](Cc1ccc(O)cc1)C(=O)N[C@@H](CCCN=C(N)N)C(=O)N[C@@H](CCCCN)C(=O)N[C@@H](CCC(N)=O)C(=O)N[C@@H](CCSC)C(=O)N[C@@H](C)C(=O)N[C@H](C(=O)N[C@@H](CCCCN)C(=O)N[C@@H](CCCCN)C(=O)N[C@@H](Cc1ccc(O)cc1)C(=O)N[C@@H](CC(C)C)C(=O)N[C@@H](C)C(=O)N[C@@H](C)C(=O)N[C@H](C(=O)N[C@@H](CC(C)C)C(N)=O)C(C)C)C(C)C)[C@@H](C)O (some centres not stated) [PACAP(4-27)] (H-G[Ile(3ξ)]FTDSYSRYRKQMAVKKYLAAVL-NH2)
Second: CSCC[C@H](NC(=O)[C@H](CCC(N)=O)NC(=O)[C@H](CCCCN)NC(=O)[C@H](CCCN=C(N)N)NC(=O)[C@H](Cc1ccc(O)cc1)NC(=O)[C@H](CCCN=C(N)N)NC(=O)[C@H](CO)NC(=O)[C@H](Cc1ccc(O)cc1)NC(=O)[C@H](CO)NC(=O)[C@H](CC(=O)O)NC(=O)[C@@H](NC(=O)[C@@H](N)Cc1ccccc1)[C@@H](C)O)C(=O)N[C@@H](C)C(=O)N[C@H](C(=O)N[C@@H](CCCCN)C(=O)N[C@@H](CCCCN)C(=O)N[C@@H](Cc1ccc(O)cc1)C(=O)N[C@@H](CC(C)C)C(=O)N[C@@H](C)C(=O)N[C@@H](C)C(=O)N[C@H](C(=O)N[C@@H](CC(C)C)C(N)=O)C(C)C)C(C)C [PACAP(5-27)] (H-FTDSYSRYRKQMAVKKYLAAVL-NH2)
The Ki of the first is 3.3-fold higher: 500 nM for the first, 150 nM for the second.

Compared with CSCC[C@H](NC(=O)[C@H](CCC(N)=O)NC(=O)[C@H](CCCCN)NC(=O)[C@H](CCCN=C(N)N)NC(=O)[C@H](Cc1ccc(O)cc1)NC(=O)[C@H](CCCN=C(N)N)NC(=O)[C@H](CO)NC(=O)[C@H](Cc1ccc(O)cc1)NC(=O)[C@H](CO)NC(=O)[C@H](CC(=O)O)NC(=O)[C@@H](N)[C@@H](C)O)C(=O)N[C@@H](C)C(=O)N[C@H](C(=O)N[C@@H](CCCCN)C(=O)N[C@@H](CCCCN)C(=O)N[C@@H](Cc1ccc(O)cc1)C(=O)N[C@@H](CC(C)C)C(=O)N[C@@H](C)C(=O)N[C@@H](C)C(=O)N[C@H](C(=O)N[C@@H](CC(C)C)C(N)=O)C(C)C)C(C)C [PACAP(6-27)] (H-TDSYSRYRKQMAVKKYLAAVL-NH2), CSCC[C@H](NC(=O)[C@H](CCC(N)=O)NC(=O)[C@H](CCCCN)NC(=O)[C@H](CCCN=C(N)N)NC(=O)[C@H](Cc1ccc(O)cc1)NC(=O)[C@H](CCCN=C(N)N)NC(=O)[C@H](CO)NC(=O)[C@H](Cc1ccc(O)cc1)NC(=O)[C@H](CO)NC(=O)[C@@H](N)CC(=O)O)C(=O)N[C@@H](C)C(=O)N[C@H](C(=O)N[C@@H](CCCCN)C(=O)N[C@@H](CCCCN)C(=O)N[C@@H](Cc1ccc(O)cc1)C(=O)N[C@@H](CC(C)C)C(=O)N[C@@H](C)C(=O)N[C@@H](C)C(=O)N[C@H](C(=O)N[C@@H](CC(C)C)C(N)=O)C(C)C)C(C)C [PACAP(8-27)] (H-DSYSRYRKQMAVKKYLAAVL-NH2) is 13-fold higher in Ki: 100 nM for the first, 1300 nM for the second. The first binds more tightly here.

In the case of CSCC[C@H](NC(=O)[C@H](CCC(N)=O)NC(=O)[C@H](CCCCN)NC(=O)[C@H](CCCN=C(N)N)NC(=O)[C@H](Cc1ccc(O)cc1)NC(=O)[C@H](CCCN=C(N)N)NC(=O)[C@H](CO)NC(=O)[C@H](Cc1ccc(O)cc1)NC(=O)[C@@H](N)CO)C(=O)N[C@@H](C)C(=O)N[C@H](C(=O)N[C@@H](CCCCN)C(=O)N[C@@H](CCCCN)C(=O)N[C@@H](Cc1ccc(O)cc1)C(=O)N[C@@H](CC(C)C)C(=O)N[C@@H](C)C(=O)N[C@@H](C)C(=O)N[C@H](C(=O)N[C@@H](CC(C)C)C(=O)NCC(=O)N[C@@H](CCCCN)C(=O)N[C@@H](CCCN=C(N)N)C(=O)N[C@@H](Cc1ccc(O)cc1)C(=O)N[C@@H](CCCCN)C(=O)N[C@@H](CCC(N)=O)C(=O)N[C@@H](CCCN=C(N)N)C(=O)N[C@H](C(=O)N[C@@H](CCCCN)C(=O)N[C@@H](CC(N)=O)C(=O)N[C@@H](CCCCN)C(N)=O)C(C)C)C(C)C)C(C)C [PACAP(9-38)] (H-SYSRYRKQMAVKKYLAAVLGKRYKQRVKNK-NH2), the Ki is reported as 50 nM.
